Experimental data taken from PubChem BioAssay (NCI).
Values joined by “and” are separate entries in the source; they are usually repeats but may differ in a detail not shown here. Equal entries are not always repeated.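 A five-concentration, 48-hour dose response in 96-well plates underlies each endpoint, interpolated linearly between surrounding concentrations. The concentration for 50% growth inhibition is given as GI50. TGI: total growth inhibition.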

How the values were obtained:
Experiment in all cases: NCI-60 cell line screen, 48 h
[1] = system: CCRF-CEM leukemia
[2] = system: HL-60(TB) leukemia
[3] = system: MDA-MB-435
[4] = system: RXF 393 renal
[5] = system: SF-539 CNS
[6] = system: SK-MEL-28 melanoma
[7] = system: SK-MEL-5 melanoma
[8] = system: SK-OV-3 ovarian
[9] = system: SW-620 colon
[10] = system: U251 CNS

| SMILES | GI50 [1] | TGI [1] | GI50 [2] | TGI [2] | GI50 [3] | TGI [3] | GI50 [4] | TGI [4] | GI50 [5] | TGI [5] | GI50 [6] | TGI [6] | GI50 [7] | TGI [7] | GI50 [8] | TGI [8] | GI50 [9] | TGI [9] | GI50 [10] | TGI [10] |
| --- | --- | --- | --- | --- | --- | --- | --- | --- | --- | --- | --- | --- | --- | --- | --- | --- | --- | --- | --- | --- |
| Cc1cc(NS(=O)(=O)c2ccc(NC(=O)COc3ccc(-c4cc5ccccc5[nH]4)cc3)cc2)no1 | 2.13 µM | > 100 µM | 2.84 µM | 32.6 µM | 1.38 µM | 3.13 µM | 1.24 µM | 2.6 µM | 1.98 µM | 4.61 µM | 1.55 µM | 3.17 µM | 2.34 µM | 6.84 µM | 1.85 µM | 3.55 µM | 1.48 µM | 3.52 µM | 1.86 µM | 6.74 µM |
| CC[C@@]1(O)C(=O)OCc2c1cc1n(c2=O)Cc2cc3c(Cl)c4c(cc3nc2-1)OCO4 | < 0.001 µM | > 100 µM | < 0.001 µM | 0.00518 µM and 0.0164 µM | 0.0193 µM and 0.0229 µM | > 100 µM | 0.0371 µM and 0.014 µM | 2.22 µM and 0.23 µM | < 0.001 µM | 0.0924 µM | 0.442 µM and 1.18 µM | > 100 µM | < 0.001 µM | 0.0323 µM and 0.159 µM | 0.00265 µM and 0.0176 µM |  |  | > 100 µM | < 0.001 µM |  |
| C/C(=C\CCc1ccsc1)CC/C=C(\C)CCCN1CCN(CCO)CC1 | 2.28 µM | 6.51 µM | 2.01 µM | 4.14 µM | 2.84 µM | 8.66 µM | 1.82 µM | 5.42 µM | 3.41 µM | 13.9 µM | 1.87 µM | 3.91 µM | 1.59 µM | 2.97 µM | 7.58 µM | 21 µM | 1.93 µM | 4.29 µM | 2.27 µM | 7.28 µM |
| O=c1[nH]cc(CO)c(=O)[nH]1 | > 100 µM | > 100 µM | > 100 µM | > 100 µM | > 100 µM | > 100 µM | > 100 µM | > 100 µM | > 100 µM | > 100 µM | > 100 µM | > 100 µM | > 100 µM | > 100 µM | > 100 µM | > 100 µM | > 100 µM | > 100 µM | > 100 µM | > 100 µM |
| CC(=O)Nc1c(I)c(C(=O)O)c(I)c(N(C)C(C)=O)c1I | > 100 µM | > 100 µM | > 100 µM | > 100 µM | > 100 µM | > 100 µM | > 100 µM | > 100 µM | > 100 µM | > 100 µM | > 100 µM | > 100 µM | > 100 µM | > 100 µM | > 100 µM | > 100 µM | > 100 µM | > 100 µM | > 100 µM | > 100 µM |
| O=S(=O)(CC(O)C(Cl)(Cl)Cl)NNc1ccccc1 (configuration not stated) |  | > 100 µM |  | > 100 µM |  | > 100 µM |  | > 100 µM |  | > 100 µM |  | > 100 µM |  | > 100 µM |  | > 100 µM |  | > 100 µM |  | > 100 µM |
| Cc1cc(N2CCN(C)CC2)nc(N(CCNc2ccnc3cc(Cl)ccc23)Cc2ccco2)n1 | 3.37 µM | 10.2 µM | 2.25 µM | 5.97 µM | 1.62 µM | 3.39 µM | 1.82 µM | 4.88 µM | 1.68 µM | 3.25 µM | 1.71 µM | 3.31 µM | 1.77 µM | 3.24 µM | 10.4 µM | 22.1 µM | 3.04 µM | 12.4 µM | 3.11 µM | 10.2 µM |
| Nc1nc2c(c(=O)[nH]1)N=C(COP(=O)(O)OP(=O)(O)O)CN2 |  | > 100 µM |  | > 100 µM |  | > 100 µM |  | > 100 µM |  | > 100 µM |  | > 100 µM |  | > 100 µM |  | > 100 µM |  | > 100 µM |  | > 100 µM |
| Cc1ccc(-c2c3c(N)nc(-c4ccncc4)nc3nc3c2c(C)nn3-c2ccccc2)cc1 | 12.6 µM | > 37.5 µM | > 37.5 µM | > 37.5 µM | 12.6 µM | > 37.5 µM | 3.88 µM | 33 µM | 2.26 µM | 7.57 µM | 7.69 µM | > 37.5 µM | 10.2 µM | > 37.5 µM | 3.41 µM | 10.2 µM | 9.99 µM | > 37.5 µM | 6.12 µM | 31.7 µM |
| COc1ccc(-c2nnc(Nc3nc(O)c(C4=c5cc(OC(F)(F)F)ccc5=NC4=O)s3)o2)cc1 | 25.5 µM | 51.1 µM | 26.6 µM | 47.7 µM | 7.46 µM | > 100 µM | 13.9 µM | 29.1 µM | 16.2 µM | 30.7 µM | 17.8 µM | > 100 µM | 17.7 µM | 42.9 µM | 17.4 µM | 44 µM | 38.2 µM | > 100 µM | 12.4 µM | 30.7 µM |
| O=c1c(-c2ccc3c(c2)OCO3)coc2c(CO)c(O)ccc12 | 3.44 µM | > 100 µM | 2.25 µM | 5.9 µM | 4.78 µM | 19.5 µM | 0.941 µM | 2.29 µM | 2.28 µM | 6.46 µM | 5.91 µM | 22.7 µM | 1.91 µM | 3.98 µM | 2.41 µM | 6.39 µM | 4.06 µM | 18.5 µM | 1.92 µM | 5.03 µM |
| O=C(O)CC1C(=O)OC2C3COC(=O)c4cc(O)c(O)c(O)c4-c4c(cc(O)c(O)c4O)C(=O)OC2C(OC(=O)c2cc(O)c(O)c4c2C1C(O)C(=O)O4)C(OC(=O)c1cc(O)c(O)c(O)c1)O3 (configuration not stated) |  | 37 µM |  | 30.4 µM |  | 83 µM |  | > 100 µM |  | > 100 µM |  | > 100 µM |  | > 100 µM |  | > 100 µM |  | > 100 µM |  | 73 µM |
| O=C1c2ccccc2C(=O)c2c(NCCNCCO)ccc(NCCNCCO)c21 | 0.156 µM and 0.461 µM and 0.264 µM | 14.6 µM and 11.1 µM | 0.274 µM and 0.13 µM and 0.456 µM | 8.67 µM and 10.6 µM | 2.43 µM and 3.09 µM and 1.95 µM | 7.22 µM and 13.2 µM and 6.06 µM | 0.322 µM and 2.43 µM and 1.92 µM | 2 µM and 10.8 µM and 7.68 µM | 0.864 µM and 1.04 µM and 0.947 µM | 3.42 µM and 6.7 µM and 4.07 µM | 1.46 µM and 1.61 µM and 1.7 µM | 3.14 µM and 3.87 µM and 5.01 µM | 1.41 µM and 1.13 µM and 1.09 µM | 3.34 µM and 2.87 µM and 2.86 µM | 1.26 µM and 1.45 µM and 2.06 µM | 11.5 µM and 9.32 µM and 11.8 µM | 1.15 µM and 1.08 µM and 0.838 µM | 11.8 µM and 13.5 µM and 11.3 µM | 0.373 µM and 0.442 µM and 0.285 µM | 5.18 µM and 6.64 µM and 2.96 µM |
| COc1cccc(C(C#N)NC23CC4CC(CC(C4)C2)C3)c1 (configuration not stated) |  | > 100 µM |  | > 100 µM |  | > 100 µM |  | > 100 µM |  | > 100 µM |  | > 100 µM |  | > 100 µM |  | > 100 µM |  | > 100 µM |  | > 100 µM |
| C=C1C(=O)O[C@H]2[C@H]1CC/C(COC(=O)c1cccc3ccccc13)=C\CC[C@@]1(C)O[C@@H]21 | 0.327 µM | 12.4 µM | 1.66 µM | 7.56 µM | 1.53 µM | 3.35 µM | 1.05 µM | 2.32 µM | 1.29 µM | 2.7 µM | 1.82 µM | 3.64 µM | 1.62 µM | 2.98 µM | 11.6 µM | 23.7 µM | 1.08 µM | 2.87 µM | 1.39 µM | 2.68 µM |
| Cc1ccc2nc3sc(=O)sc3nc2c1 |  | > 100 µM |  | 44.1 µM |  | 29.8 µM |  | 67.8 µM |  | 35.1 µM |  | 48.9 µM |  | 29.1 µM |  | 34.6 µM |  | 67.9 µM |  | 30.8 µM |
| CCCCCCCCCCCCNC(=O)[C@H]1CSC(c2cc(Br)cs2)N1 (some centres not stated) | 1.03 µM | 2.51 µM | 1.01 µM | 2.49 µM | 0.665 µM | 1.31 µM | 1.18 µM | 2.6 µM | 0.95 µM | 1.87 µM | 0.759 µM | 1.49 µM | 5.57 µM | 11.8 µM | 1.06 µM | 2.23 µM | 1.4 µM | 4.19 µM | 1.05 µM | 2.26 µM |
| C[C@@H](Oc1cc(-c2cnn(C3CC4(CNC4)C3)c2)cnc1N)c1c(Cl)ccc(F)c1Cl | 0.681 µM | 6.97 µM | 1.59 µM | 6.76 µM | 1.16 µM | 14.2 µM | 3.39 µM | 12.7 µM | 2.51 µM | 7.89 µM | 1.74 µM | 4 µM | 3.92 µM | 12.2 µM | 7.98 µM | 21.1 µM | 1.31 µM | 11.9 µM | 5.01 µM | 19.1 µM |
| O=C(O)CN(CC(=O)O)c1ccccc1 |  | 83.7 µM |  | > 100 µM |  | > 100 µM |  | > 100 µM |  | > 100 µM |  | > 100 µM |  | > 100 µM |  | > 100 µM |  | > 100 µM |  | > 100 µM |
| O=C1c2ccccc2-c2c1c1c(O)cccc1n2CCCc1ccccc1 | 24.1 µM | > 100 µM | 28.1 µM | > 100 µM | 16.7 µM | > 100 µM | 5.87 µM | 68.5 µM | 23.1 µM | > 100 µM | > 100 µM | > 100 µM | 12.6 µM | 27.8 µM | 84.3 µM | > 100 µM | 51.9 µM | > 100 µM | 26.4 µM | > 100 µM |
| COc1ccc(C2=NNC(c3cc(Cc4ccc(O)c(C5CC(c6ccc(OC)cc6)=NN5)c4)ccc3O)C2)cc1 (configuration not stated) | 3.85 µM | > 100 µM | 23.4 µM | > 100 µM | 8.52 µM | > 100 µM | 4.18 µM | 48.3 µM | 22.4 µM | > 100 µM | 10.2 µM | 34.1 µM | 1.76 µM | 6.4 µM | 31.6 µM | > 100 µM | 7.96 µM | > 100 µM | 5.84 µM | > 100 µM |
| COc1ccccc1N(C(C)=O)C1=C(Cl)C(=O)c2ccccc2C1=O | 1.95 µM | 5.11 µM | 2.24 µM | 5.53 µM | 1.9 µM | 4.55 µM | 1.12 µM | 2.45 µM | 1.45 µM | 4.77 µM | 2.4 µM | 7.03 µM | 1.19 µM | 2.63 µM | 2.46 µM | 7.33 µM | 1.06 µM | 2.55 µM | 2.62 µM | 11.8 µM |
